Reference: patent publication US20080063702A1, “Liposomal Formulations Comprising an Amphipathic Weak Base Like Tempamine for Treatment of Neurodegenerative Conditions” (priority 2004, published 2008)

Columns and labels:
PC12 neurons = assay: MPP+ toxicity experiment, LDH leakage assay in NGF-differentiated PC12 cells; type: cell-based
Protocol: PC12 cells were grown in Dulbecco's modified Eagle's medium (DMEM), supplemented with 7% fetal calf serum, 7% horse serum, 100 μg/ml streptomycin, and 100 U/ml penicillin. The cultures were maintained in an incubator at 37° C. in a humidified atmosphere of 6% CO2. The growth medium was changed twice weekly and the cultures were split at 1:6 ratio once a week [Abu-Raya et al. J. Neurosci. Methods 50:197-203 (1993)].
For differentiation, an identical number of PC12 cells (3.75×10^5 cells) was plated on 6-wells plates coated with rat tail type I collagen (0.1 mg/ml) to promote cell adhesion [Abu-Raya et al Rasagiline, a monoamine oxidase-B inhibitor, protects NGF-differentiated PC12 cells against oxygen-glucose deprivation. J. Neurosci. Res. 58:456-463 (1999)]. The differentiation of the cultures was induced by treatment with NGF (50 ng/ml), added every 48 hr for a period of 7-8 days.
Cell death was evaluated by measuring the leakage of LDH into the growth medium as previously described [Abu-Raya et al. J. Neurosci. Res. 58:456-463, (1999)]. Samples of 50 μl of the growth medium were collected from each well and centrifuged at 3,500 rpm for 5 min at 25° C.; the supernatant was collected and LDH release was measured using a TRACE LD-L reagent. LDH activity was determined using an ELISA reader (TECAN, SPECTRAFluor PLUS, Grodig, Salzburg, Austria) at 340 nm by following the rate of conversion of oxidized nicotinamide adenine dinucleotide (NAD^+) to the reduced form of (NADH). MPP^+-induced LDH release was expressed as 100% of toxicity compared to control-untreated cultures. Each experiment was performed three times in duplicates (n=6).
On the day of the experiment, the NGF containing medium was replaced with fresh one. […]
MPP^+ was dissolved in growth medium containing NGF and added to each well in a final concentration of 1500 μM. […] The experiment was accomplished when percentage of cell death was in the range 30-60%, measured by the release of LDH into the medium. […]

[1] = test system: PLP injected animals (acute EAE, model for MS); assay: Acute EAE induced with PLP 139-151, clinical signs scoring; type: in vivo, SJL female mice

## CC1(C)CC(N)CC(C)(C)N1[O] [TMN, 2,2,6,6-tetramethylpiperidine-4-amino-1-oxyl]
PC12 neurons; 500 μM-1000 μM TMN
  toxicity to the cells at higher concentration (bell shape): toxic to the cells
PC12 neurons; 1500 μM MPP+, TMN 0.1-100 μM added 1 hr before, LDH after 48 hr, FIG. 1
  protection of PC12 neurons from oxidative damage inflicted by MPP+ (LDH release): protects PC12 neurons from oxidative damage
PC12 neurons; 1500 μM MPP+, dose response 0.1-1000 μM
  most effective TMN concentration for protection against MPP+: 100 µM
[1]; SSL-TMN i.v., 80 nm, compared with Copaxone, Betaferon, empty SSL, free TMN, FIG. 2
  effect on clinical signs of MS, in words: no observed effect against the disease
[1]; Table 4B
  #dead: 1
  MDD: 19 ± 1.2
  MDO: 14 ± 0.5
  MMS: 3.9 ± 0.53
  Mean score: 3.5 ± 0.21
[1]; Table 4B, free TMN at same concentration as encapsulated in the liposomes
  Incidence: 5/5
